Measured values published in ChEMBL document CHEMBL1201862, “PubChem BioAssay data set” (2004).
Active and inactive are the calls of the source.

Experiments:
[1] = biological target: T1, RNA-binding protein pos-1 (Caenorhabditis elegans, UniProt G5EF15); experiment: inhibitors of POS-1/mex-3 RNA binding, dose response, biochemical, fluorescence polarization (AID 1964);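 also: purified POS-1 fused to maltose binding protein made in E. coli; potency of compounds blocking POS-1 binding to fluorescent RNA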
T1 sequence (G5EF15 whole entry): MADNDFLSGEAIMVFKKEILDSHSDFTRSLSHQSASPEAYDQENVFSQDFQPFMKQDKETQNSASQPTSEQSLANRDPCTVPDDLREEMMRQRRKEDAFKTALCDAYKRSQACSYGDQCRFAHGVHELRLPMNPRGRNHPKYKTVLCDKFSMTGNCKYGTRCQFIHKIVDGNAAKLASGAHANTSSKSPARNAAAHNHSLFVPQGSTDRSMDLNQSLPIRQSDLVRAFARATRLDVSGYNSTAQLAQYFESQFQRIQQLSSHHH

[2] = biological target: T2, Zinc finger protein mex-5 (Caenorhabditis elegans, UniProt Q9XUB2); experiment: MEX-5/TCR-2 RNA interaction inhibitors, dose response, biochemical, C. elegans, fluorescence polarization (AID 1960)
T2 sequence (Q9XUB2 whole entry): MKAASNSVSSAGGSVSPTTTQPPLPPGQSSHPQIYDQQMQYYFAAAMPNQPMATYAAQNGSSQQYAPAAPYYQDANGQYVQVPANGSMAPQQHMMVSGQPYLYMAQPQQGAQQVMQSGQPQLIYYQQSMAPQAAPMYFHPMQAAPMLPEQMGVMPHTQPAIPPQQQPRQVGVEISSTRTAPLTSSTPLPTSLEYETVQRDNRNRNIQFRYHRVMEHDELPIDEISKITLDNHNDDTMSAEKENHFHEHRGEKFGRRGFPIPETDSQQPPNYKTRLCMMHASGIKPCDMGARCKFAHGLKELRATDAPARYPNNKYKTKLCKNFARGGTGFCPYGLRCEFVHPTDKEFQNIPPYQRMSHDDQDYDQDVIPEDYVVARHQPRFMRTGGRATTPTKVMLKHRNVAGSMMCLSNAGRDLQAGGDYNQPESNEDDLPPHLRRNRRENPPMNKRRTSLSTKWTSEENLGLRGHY

Large T antigen = Large T antigen (Simian virus 40, UniProt P03070); format: functional, Betapolyomavirus macacae;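 also: Confirmatory-stage PubChem screen for compounds that inhibit SV40 T antigen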
[3] = biological target: T3, DNA repair protein RAD52 homolog (Homo sapiens, UniProt P43351); format: functional, biochemical
T3 sequence (P43351 whole entry): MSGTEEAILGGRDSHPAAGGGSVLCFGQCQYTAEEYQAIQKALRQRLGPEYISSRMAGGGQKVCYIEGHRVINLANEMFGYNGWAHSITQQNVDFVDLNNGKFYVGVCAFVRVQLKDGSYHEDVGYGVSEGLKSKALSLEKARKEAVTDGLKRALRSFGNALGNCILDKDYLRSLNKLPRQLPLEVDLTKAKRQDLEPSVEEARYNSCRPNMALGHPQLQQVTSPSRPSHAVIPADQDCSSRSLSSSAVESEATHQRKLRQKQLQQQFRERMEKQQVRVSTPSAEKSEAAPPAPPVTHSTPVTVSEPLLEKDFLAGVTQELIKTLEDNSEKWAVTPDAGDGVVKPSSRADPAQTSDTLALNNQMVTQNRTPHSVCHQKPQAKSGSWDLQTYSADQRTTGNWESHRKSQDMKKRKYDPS

Leucine aminopeptidase = biological target: T4, Leucine aminopeptidase (Plasmodium falciparum 3D7, UniProt Q8IL11); experiment: P. falciparum M17LAP inhibitors, primary screen, biochemical, fluorogenic H-Leu-NHMec substrate, 1536-well (AID 1619); format: functional
T4 sequence (Q8IL11 whole entry): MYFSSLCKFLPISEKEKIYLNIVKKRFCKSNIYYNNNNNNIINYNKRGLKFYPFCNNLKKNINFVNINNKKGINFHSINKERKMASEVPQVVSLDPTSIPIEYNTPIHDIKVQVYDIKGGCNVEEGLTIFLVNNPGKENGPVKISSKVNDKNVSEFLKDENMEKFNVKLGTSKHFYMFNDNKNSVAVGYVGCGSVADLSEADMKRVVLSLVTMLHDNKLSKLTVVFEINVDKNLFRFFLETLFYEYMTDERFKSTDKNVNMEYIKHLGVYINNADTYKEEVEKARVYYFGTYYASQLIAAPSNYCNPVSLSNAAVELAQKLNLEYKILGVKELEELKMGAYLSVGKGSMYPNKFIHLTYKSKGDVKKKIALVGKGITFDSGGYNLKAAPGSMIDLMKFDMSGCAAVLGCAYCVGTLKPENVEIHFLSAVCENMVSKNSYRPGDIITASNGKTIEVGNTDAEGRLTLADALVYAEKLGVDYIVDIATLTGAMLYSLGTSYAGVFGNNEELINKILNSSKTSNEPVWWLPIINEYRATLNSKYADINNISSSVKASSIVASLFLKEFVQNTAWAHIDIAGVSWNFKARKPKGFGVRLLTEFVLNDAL

Genome polyprotein = Genome polyprotein (dengue virus type 2, UniProt P29990); experiment: Dengue-2 NS5 methyltransferase inhibitors, primary screen, biochemical, confirmation dose response (AID 588689); format: functional
[4] = biological target: T5, Polyadenylate-binding protein 1 (Homo sapiens, UniProt P11940); experiment: PABP1 MLLE–PAM2 interaction inhibitors, dose response, miRNA deadenylation inhibitor project, biochemical, fluorescence polarization, Cy5-PAM2 peptide, secondary (AID 602260); format: functional; conditions: read-out: IC50_Mean
[5] = biological target: T5, Polyadenylate-binding protein 1; experiment: PABP1 MLLE–PAM2 binding inhibitor potency, dose response, biochemical, fluorescence polarization, FITC-PAM2 peptide (AID 602259); format: functional; conditions: read-out: IC50_Mean
[6] = biological target: T6, Replicative DNA helicase DnaB (Mycobacterium tuberculosis, UniProt P9WMR3); experiment: DnaB intein splicing inhibitors, dose response, biochemical, cell-free fluorescence (AID 449749); format: functional
T6 sequence (P9WMR3 whole entry): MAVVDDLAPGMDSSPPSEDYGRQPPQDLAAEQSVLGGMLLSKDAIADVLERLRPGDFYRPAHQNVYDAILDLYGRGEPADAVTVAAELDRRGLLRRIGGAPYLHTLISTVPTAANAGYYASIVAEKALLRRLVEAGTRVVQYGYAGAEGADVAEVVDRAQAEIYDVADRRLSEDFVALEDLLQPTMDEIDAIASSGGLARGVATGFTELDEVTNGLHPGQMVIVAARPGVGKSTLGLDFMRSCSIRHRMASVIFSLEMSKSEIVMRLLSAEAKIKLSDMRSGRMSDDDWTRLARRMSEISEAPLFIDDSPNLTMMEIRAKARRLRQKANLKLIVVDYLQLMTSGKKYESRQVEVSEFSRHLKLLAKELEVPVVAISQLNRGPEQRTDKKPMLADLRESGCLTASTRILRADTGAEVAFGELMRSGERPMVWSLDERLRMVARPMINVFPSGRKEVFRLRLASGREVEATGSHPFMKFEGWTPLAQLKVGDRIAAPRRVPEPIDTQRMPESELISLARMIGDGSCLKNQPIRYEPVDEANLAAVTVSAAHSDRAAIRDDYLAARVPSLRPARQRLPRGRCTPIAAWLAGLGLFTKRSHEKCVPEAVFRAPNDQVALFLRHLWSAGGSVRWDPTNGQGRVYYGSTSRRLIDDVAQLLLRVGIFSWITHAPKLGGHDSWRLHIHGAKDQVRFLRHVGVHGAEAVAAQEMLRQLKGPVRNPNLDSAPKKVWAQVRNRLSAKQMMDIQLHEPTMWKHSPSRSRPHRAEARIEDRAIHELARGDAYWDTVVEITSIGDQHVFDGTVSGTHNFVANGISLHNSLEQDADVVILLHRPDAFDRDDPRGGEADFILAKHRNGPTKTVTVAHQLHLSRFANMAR

Protein RecA = biological target: T7, Protein RecA (Mycobacterium tuberculosis, UniProt P9WHJ3); experiment: Fluorescence Cell-Free Homogeneous Dose Retest to Identify Inhibitors of RecA-Intein Splicing Activity. [Related pubchem assays (depositor defined):AID2097, AID2223, AID489010, AID492950]; format: functional
T7 sequence (P9WHJ3 whole entry): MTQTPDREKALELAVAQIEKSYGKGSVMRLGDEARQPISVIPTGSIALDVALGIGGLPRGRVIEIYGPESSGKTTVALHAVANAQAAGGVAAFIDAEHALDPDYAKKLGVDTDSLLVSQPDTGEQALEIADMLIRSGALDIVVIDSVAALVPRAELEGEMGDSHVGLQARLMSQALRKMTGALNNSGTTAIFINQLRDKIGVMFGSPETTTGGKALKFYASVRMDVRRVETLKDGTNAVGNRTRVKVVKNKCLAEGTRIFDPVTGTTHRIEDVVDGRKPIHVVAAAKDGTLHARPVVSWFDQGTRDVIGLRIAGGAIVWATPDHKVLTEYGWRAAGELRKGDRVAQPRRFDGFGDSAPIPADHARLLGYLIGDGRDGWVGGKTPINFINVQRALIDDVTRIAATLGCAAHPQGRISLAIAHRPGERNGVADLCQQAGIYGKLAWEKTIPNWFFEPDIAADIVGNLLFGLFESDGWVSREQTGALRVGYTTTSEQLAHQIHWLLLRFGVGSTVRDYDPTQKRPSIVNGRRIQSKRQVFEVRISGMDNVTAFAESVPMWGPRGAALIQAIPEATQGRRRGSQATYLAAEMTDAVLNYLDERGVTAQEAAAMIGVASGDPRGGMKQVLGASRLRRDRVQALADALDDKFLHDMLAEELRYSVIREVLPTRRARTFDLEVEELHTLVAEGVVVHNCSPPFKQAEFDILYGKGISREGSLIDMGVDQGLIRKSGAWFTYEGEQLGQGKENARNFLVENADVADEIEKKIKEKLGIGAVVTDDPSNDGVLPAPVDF

[7] = biological target: T8, Carboxy-terminal domain RNA polymerase II polypeptide A small phosphatase 1 (Homo sapiens, UniProt Q9GZU7); experiment: inhibitors of CTDSP1, concentration-response testing, biochemical assay, absorbance-based, actives from ultra-high-throughput screening (AID 540297); format: functional
T8 sequence (Q9GZU7 whole entry): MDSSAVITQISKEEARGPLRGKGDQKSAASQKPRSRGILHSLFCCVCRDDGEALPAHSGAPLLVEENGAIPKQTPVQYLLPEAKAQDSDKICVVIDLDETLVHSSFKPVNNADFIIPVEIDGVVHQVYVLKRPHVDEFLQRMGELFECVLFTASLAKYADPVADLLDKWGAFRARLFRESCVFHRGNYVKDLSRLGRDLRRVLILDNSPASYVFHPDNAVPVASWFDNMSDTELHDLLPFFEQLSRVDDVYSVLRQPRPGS

BJ [8] = experiment: cytotoxicity toward BJ-TERT fibroblasts, dose response, cell-based, RAS-independent, luminescence (AID 1933); format: functional; conditions: Homo sapiens
BJ [9] = experiment: cells; format: functional, cell-based; conditions: Homo sapiens
BJ [10] = experiment: cytotoxicity toward BJ-TERT-LT-ST fibroblasts, dose response, cell-based, RAS-independent, luminescence (AID 1935); format: functional; conditions: Homo sapiens;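 also: BJ fibroblasts immortalized with TERT plus LT and ST oncogenes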
[11] = cytotoxicity toward DRD oncogenic fibroblasts, dose response, cell-based, non-viral oncogenic, luminescence (AID 1934); format: functional; conditions: Homo sapiens
[12] = biological target: T9, Ubiquitin-conjugating enzyme E2 N (Homo sapiens, UniProt P61088); format: functional;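 also: Dose-response confirmation in a TR-FRET assay detecting UBC13-driven polyubiquitin chain formation, inhibition measured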
T9 sequence (P61088 whole entry): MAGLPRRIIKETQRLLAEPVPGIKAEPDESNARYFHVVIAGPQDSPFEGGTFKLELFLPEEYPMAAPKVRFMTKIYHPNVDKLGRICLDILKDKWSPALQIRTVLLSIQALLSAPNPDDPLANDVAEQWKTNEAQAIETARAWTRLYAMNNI

[13] = biological target: Induced myeloid leukemia cell differentiation protein Mcl-1 (Homo sapiens, UniProt Q07820); format: functional
Chain of Induced myeloid leukemia cell differentiation protein Mcl-1 (Q07820 whole entry): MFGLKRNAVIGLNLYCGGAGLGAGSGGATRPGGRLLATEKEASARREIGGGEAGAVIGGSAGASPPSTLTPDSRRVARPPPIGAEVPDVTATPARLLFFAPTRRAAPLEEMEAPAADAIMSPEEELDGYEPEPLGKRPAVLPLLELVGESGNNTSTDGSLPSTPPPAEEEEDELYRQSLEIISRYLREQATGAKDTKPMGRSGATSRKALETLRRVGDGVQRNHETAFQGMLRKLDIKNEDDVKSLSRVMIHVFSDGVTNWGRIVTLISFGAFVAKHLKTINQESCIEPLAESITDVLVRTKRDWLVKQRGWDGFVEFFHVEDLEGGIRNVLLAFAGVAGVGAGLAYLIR

Chain of Genome polyprotein (P29990 2492-3391 limits assumed): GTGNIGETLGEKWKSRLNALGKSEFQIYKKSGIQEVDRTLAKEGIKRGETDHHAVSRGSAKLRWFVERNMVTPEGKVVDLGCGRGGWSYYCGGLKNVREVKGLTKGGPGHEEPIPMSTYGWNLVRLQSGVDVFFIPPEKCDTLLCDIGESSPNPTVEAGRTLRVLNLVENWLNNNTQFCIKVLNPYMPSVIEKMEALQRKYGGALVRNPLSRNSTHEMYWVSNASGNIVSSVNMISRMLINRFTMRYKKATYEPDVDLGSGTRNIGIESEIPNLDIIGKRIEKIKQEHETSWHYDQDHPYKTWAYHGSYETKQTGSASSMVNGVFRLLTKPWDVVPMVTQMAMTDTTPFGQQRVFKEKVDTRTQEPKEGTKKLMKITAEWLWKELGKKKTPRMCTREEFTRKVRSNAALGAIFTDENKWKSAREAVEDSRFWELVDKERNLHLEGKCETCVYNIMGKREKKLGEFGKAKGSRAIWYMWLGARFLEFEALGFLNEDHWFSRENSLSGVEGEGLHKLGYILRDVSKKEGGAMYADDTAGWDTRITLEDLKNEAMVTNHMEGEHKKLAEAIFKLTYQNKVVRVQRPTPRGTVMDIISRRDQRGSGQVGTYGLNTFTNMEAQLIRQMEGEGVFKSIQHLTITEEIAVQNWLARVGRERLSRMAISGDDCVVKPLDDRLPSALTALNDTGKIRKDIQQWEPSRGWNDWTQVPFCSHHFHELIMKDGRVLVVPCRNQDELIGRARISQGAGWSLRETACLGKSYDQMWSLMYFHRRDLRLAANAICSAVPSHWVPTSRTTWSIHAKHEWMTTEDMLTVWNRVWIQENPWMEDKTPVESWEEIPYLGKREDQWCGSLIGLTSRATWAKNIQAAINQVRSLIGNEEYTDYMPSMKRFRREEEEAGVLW
Chain of Large T antigen (P03070 whole entry): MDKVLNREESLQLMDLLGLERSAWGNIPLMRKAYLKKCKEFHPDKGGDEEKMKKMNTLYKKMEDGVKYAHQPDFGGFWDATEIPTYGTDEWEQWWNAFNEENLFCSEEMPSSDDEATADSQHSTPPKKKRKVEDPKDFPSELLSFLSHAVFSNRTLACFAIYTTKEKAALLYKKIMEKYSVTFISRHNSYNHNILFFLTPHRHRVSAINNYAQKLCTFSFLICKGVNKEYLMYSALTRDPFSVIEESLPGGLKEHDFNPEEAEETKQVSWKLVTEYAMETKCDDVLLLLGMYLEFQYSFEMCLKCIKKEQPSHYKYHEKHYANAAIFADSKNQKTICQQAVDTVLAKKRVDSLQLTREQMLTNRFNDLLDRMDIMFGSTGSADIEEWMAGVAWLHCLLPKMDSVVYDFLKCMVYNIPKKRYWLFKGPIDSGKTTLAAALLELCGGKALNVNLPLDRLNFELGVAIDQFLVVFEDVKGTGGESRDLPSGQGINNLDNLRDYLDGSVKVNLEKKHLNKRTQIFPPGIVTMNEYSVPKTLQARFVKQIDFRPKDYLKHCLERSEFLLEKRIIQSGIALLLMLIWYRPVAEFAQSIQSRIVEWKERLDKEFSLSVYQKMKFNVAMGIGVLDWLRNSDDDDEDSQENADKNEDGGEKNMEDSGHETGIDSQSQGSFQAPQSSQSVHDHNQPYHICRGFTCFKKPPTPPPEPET
T5 sequence (P11940 whole entry): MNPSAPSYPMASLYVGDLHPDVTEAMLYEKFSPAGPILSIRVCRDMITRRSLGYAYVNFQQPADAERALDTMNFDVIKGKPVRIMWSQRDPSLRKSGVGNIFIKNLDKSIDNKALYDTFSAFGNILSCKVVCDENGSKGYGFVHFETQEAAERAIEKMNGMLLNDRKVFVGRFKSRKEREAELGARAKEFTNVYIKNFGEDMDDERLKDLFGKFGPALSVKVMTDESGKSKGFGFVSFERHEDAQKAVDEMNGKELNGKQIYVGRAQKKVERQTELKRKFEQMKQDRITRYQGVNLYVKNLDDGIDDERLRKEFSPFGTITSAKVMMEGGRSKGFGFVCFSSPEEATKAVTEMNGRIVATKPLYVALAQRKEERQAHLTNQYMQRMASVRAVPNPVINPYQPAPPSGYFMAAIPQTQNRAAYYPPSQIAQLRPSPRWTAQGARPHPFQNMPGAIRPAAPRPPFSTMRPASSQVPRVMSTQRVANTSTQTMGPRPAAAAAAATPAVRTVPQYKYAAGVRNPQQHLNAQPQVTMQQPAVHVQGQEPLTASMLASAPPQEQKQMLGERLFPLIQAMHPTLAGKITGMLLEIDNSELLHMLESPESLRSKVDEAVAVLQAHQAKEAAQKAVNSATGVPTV

## Nc1ccc2[nH]c(CCCO)nc2c1
[1]
  EC50: 36.7 µM (active)
[2]
  EC50: 4.35 µM (inconclusive)
Large T antigen
  IC50: 21.2 µM (active)
[3]
  AC50: 8.48 µM (active)

## O=C(O)CCN1C(=O)CC(N2C(=O)/C(=C/c3ccc(Cl)cc3)SC2=S)C1=O (stereo unspecified)
Leucine aminopeptidase
  IC50: 22.5 µM (active)

## COc1ccc(N2C(=O)NC(=O)/C(=C\c3ccccc3[N+](=O)[O-])C2=O)cc1
Genome polyprotein
  IC50: 32 µM (active)

## CN(C)c1ccc(C=C2C(=O)NC(=S)NC2=O)cc1[N+](=O)[O-]
Leucine aminopeptidase
  IC50: 76.6 µM (active)
Large T antigen
  IC50: 73.7 µM (active)
Genome polyprotein
  IC50: 12.8 µM (active)
[4]
  IC50: > 66 µM (inactive)
[5]
  IC50: > 66 µM (inactive)

## O=C(OCC(=O)N1CCCC1)c1ccccc1OCc1ccccc1
Leucine aminopeptidase
  IC50: 4.38 µM (active)

## CCc1ccc(N2C(=O)C(Cl)=C(N3CCOCC3)C2=O)cc1
[6]
  AC50: 6.99 µM (active)
Protein RecA
  EC50: 0.34 µM (active)
Genome polyprotein
  IC50: 45.1 µM (active)

## Cc1c(Nc2nc3ccccc3nc2NS(=O)(=O)c2cccc(Cl)c2)c(=O)n(-c2ccccc2)n1C
Leucine aminopeptidase
  IC50: 21.3 µM (active)

## COc1ccccc1NC(=O)CSc1sc2c(O)cc(=O)[nH]c2c1C#N
[7]
  IC50: 6.42 µM (active)

## COc1cc(/C=C2\C(=N)N3N=C(S(C)(=O)=O)SC3=NC2=O)ccc1OS(=O)(=O)c1ccc(C)cc1
Large T antigen
  IC50: 64.6 µM (active)
[7]
  IC50: 3.81 µM (active)

## O=C(Cn1c(=O)oc2cc(S(=O)(=O)N3CCCCCC3)ccc21)NC1CCCCCCC1
[7]
  IC50: 9.64 µM (active)

## COc1cc(C(=O)Nc2ccc3ccccc3c2)cc(OC)c1OC
BJ [8]
  EC50: 3.2 µM (active)
BJ [9]
  EC50: > 150 µM (not active)
BJ [10]
  EC50: 1.44 µM (active)
[11]
  EC50: 1.33 µM (active)

## Cc1ccc(-c2[nH]nc3c2C(c2cccnc2)C(C#N)=C(N)O3)cc1 (stereo unspecified)
Leucine aminopeptidase
  IC50: 25.8 µM (active)
[6]
  AC50: 5.17 µM (active)
Protein RecA
  EC50: 1.3 µM (active)

## CCC(C)[C@H](N)c1cn([C@@H](Cc2cc3ccccc3[nH]2)C(=O)N2CCNCC2)nn1 (stereo partly specified)
[12]
  IC50: > 20 µM (inactive)
[3]
  AC50: 8.23 µM (active)

## CC[C@H](C)NC(=O)c1ccc(Cn2c(=S)[nH]c3c([nH]c4ccc(OC)cc43)c2=O)cc1
[13]
  IC50: 5.25 µM (active)
[7]
  IC50: 4.67 µM (active)
